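Protocol summary: plate cells (96-well), add compound at 5 concentrations, incubate 48 h, interpolate endpoints linearly. The concentration for 50% growth inhibition is given as GI50. At the TGI there is no net growth.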
Assays:
Experiment in all cases: inhibition of tumour cell growth, NCI panel, 48 h
A549 NSCLC = tested on: A549 NSCLC
COLO 205 colon = tested on: COLO 205 colon
HS 578T breast = tested on: HS 578T breast
MDA-MB-435 = tested on: MDA-MB-435
NCI-H460 lung = tested on: NCI-H460 lung
NCI/ADR-RES ovarian = tested on: NCI/ADR-RES ovarian
SF-539 CNS = tested on: SF-539 CNS
SNB-75 CNS = tested on: SNB-75 CNS
EKVX NSCLC = tested on: EKVX NSCLC
T-47D breast = tested on: T-47D breast

Row | SMILES | TGI (A549 NSCLC) | TGI (COLO 205 colon) | TGI (HS 578T breast) | TGI (MDA-MB-435) | TGI (NCI-H460 lung) | TGI (NCI/ADR-RES ovarian) | TGI (SF-539 CNS) | TGI (SNB-75 CNS) | TGI (EKVX NSCLC) | TGI (T-47D breast) | GI50 (A549 NSCLC) | GI50 (COLO 205 colon) | GI50 (NCI-H460 lung) | GI50 (NCI/ADR-RES ovarian) | GI50 (SF-539 CNS) | GI50 (SNB-75 CNS)
1 | Cc1ccc(N2CCc3c(C)c(C#N)c4nc5ccccc5n4c32)cc1 | > 100 µM | > 100 µM | 48.3 µM | > 100 µM | > 100 µM | > 100 µM | > 100 µM | 62 µM | – | – | – | – | – | – | – | –
2 | COC(=O)/C=C1\CCC(C)(C(=O)NS(=O)(=O)c2ccc(C)cc2)C1(C)C (stereo not given) | > 100 µM | > 100 µM | – | > 100 µM | > 100 µM | > 100 µM | > 100 µM | – | > 100 µM | > 100 µM | – | – | – | – | – | –
3 | O=c1[nH]nc(-c2ccccc2)n1/N=C/c1c(O)ccc2ccccc12 | > 100 µM | > 100 µM | 50.4 µM | > 100 µM | – | > 100 µM | > 100 µM | 93.6 µM | > 100 µM | – | – | – | – | – | – | –
4 | O=C1COc2ccc([N+](=O)[O-])cc2C(=O)C1 | > 10 µM | > 10 µM | > 10 µM | > 10 µM | > 10 µM | > 10 µM | > 10 µM | – | > 10 µM | > 10 µM | – | – | – | – | – | –
5 | C1CCC(OC2CSC2)OC1 (stereo not given) | > 100 µM | > 100 µM | > 100 µM | > 100 µM | > 100 µM | > 100 µM | – | > 100 µM | – | > 100 µM | – | – | – | – | – | –
6 | COc1cccc(/C=N/[N-]C(N)=O)c1[O-].[Ni+2].[OH3+].c1cnc2c(c1)ccc1cccnc12 | > 100 µM | > 100 µM | – | – | > 100 µM | – | > 100 µM | > 100 µM | – | – | – | – | – | – | – | –
7 | C=C(C)C(=O)[C@@]12C(=O)[C@@H](C)CC[C@H]1[C@H](C)C[C@@H]2C=C(C)C | > 100 µM | 41.5 µM | – | 54.3 µM | – | 83.5 µM | 47.4 µM | > 100 µM | 93.1 µM | – | – | – | – | – | – | –
8 | C=C1C(=O)OCC2C(C(=O)O)=CC3C(C)C(C)=CC123 (stereo not given) | 77.1 µM | 32.9 µM | – | – | 29.2 µM | 27.3 µM | 23.9 µM | 44.1 µM | 62.6 µM | – | – | – | – | – | – | –
9 | CC(CO)C1C[C@H](O)[C@@]2(C)CC(=O)C=C(CO)[C@@H]2C1 (stereo not given in full) | > 100 µM | > 100 µM | – | > 100 µM | > 100 µM | > 100 µM | > 100 µM | > 100 µM | > 100 µM | > 100 µM | – | – | – | – | – | –
10 | COC(=O)/C=C(/C(=O)OC)c1c(C)c(C)c2c(C)cc(C)cc(C)c1-2 | > 100 µM | > 100 µM | 62.2 µM | > 100 µM | > 100 µM | > 100 µM | > 100 µM | – | > 100 µM | > 100 µM | – | – | – | – | – | –
11 | O=C(CCCCCCCCC(=O)N1C(=O)CC(=O)N(c2cccc(Cl)c2)C1=S)N1C(=O)CC(=O)N(c2cccc(Cl)c2)C1=S | > 100 µM | > 100 µM | > 100 µM | > 100 µM | > 100 µM | 96.9 µM | – | > 100 µM | > 100 µM | > 100 µM | – | – | – | – | – | –
12 | O=[Se](=O)c1ccccc1.O=[Se](=O)c1ccccc1.[Cu] | 52.2 µM | 35.4 µM | – | – | 20 µM | 30 µM | 30.6 µM | 37.6 µM | – | – | 26 µM | 18.5 µM | 8 µM | 10.5 µM | 16.4 µM | 22 µM
13 | NCCNc1cccc2ccccc12 | > 100 µM | > 100 µM | – | – | > 100 µM | – | > 100 µM | – | > 100 µM | – | – | – | – | – | – | –
14 | CSC1=C(C#N)C(=O)N(c2ccc(C)cc2)C(=S)C1C#N (stereo not given) | > 100 µM | > 100 µM | > 100 µM | > 100 µM | > 100 µM | > 100 µM | > 100 µM | > 100 µM | > 100 µM | – | – | – | – | – | – | –
15 | Cc1cc(-c2nc3ccccc3s2)ccc1NC(=O)[C@H](C)N | 27.3 µM | 26.7 µM | 74.4 µM | 19.9 µM | 25.6 µM | 38.5 µM | – | 26.1 µM | – | 21.4 µM | – | – | – | – | – | –
16 | COC(=O)/C=C/c1cc(O)c2c(c1)[C@H](C(=O)OC)[C@@H](c1ccc(O)c(O)c1)O2 | > 100 µM | 61.6 µM | 78.3 µM | – | 24.5 µM | – | – | 0.0711 µM | > 85 µM | – | – | – | – | – | – | –
17 | CC(=O)O[C@]12CCCC1C1(O)C(O)CCCC12 (stereo not given in full) | > 100 µM | > 100 µM | – | – | > 100 µM | – | – | > 100 µM | > 100 µM | – | – | – | – | – | – | –
18 | COC(=O)c1cc(C#N)[nH]c1-c1ccc(C)s1 | > 100 µM | > 100 µM | – | > 100 µM | > 100 µM | > 100 µM | > 100 µM | > 100 µM | 78.6 µM | > 100 µM | – | – | – | – | – | –
19 | Cc1cn(CC2=NCC(C)(C)N2)c(=O)[nH]c1=O | > 100 µM | > 100 µM | > 100 µM | – | > 100 µM | > 100 µM | – | > 100 µM | > 100 µM | > 100 µM | – | – | – | – | – | –
20 | COc1cc(/C=C2\N=C(c3ccccc3)N(c3nc4c(OC)ccc(OC)c4s3)C2=O)cc(OC)c1OC | > 100 µM | > 100 µM | > 100 µM | > 100 µM | > 100 µM | > 100 µM | – | > 100 µM | > 100 µM | > 100 µM | – | – | – | – | – | –
21 | O=C(c1ccccc1)c1ccc2nc(-c3c(Cl)c(Cl)c(Cl)c(Cl)c3C(=O)N/N=C/c3ccccc3)[nH]c2c1 | > 100 µM | 39.3 µM | > 100 µM | 90.8 µM | – | 80 µM | > 100 µM | 92.6 µM | 60.2 µM | 74.3 µM | – | – | – | – | – | –
22 | CCc1ccc2[nH]c(O)c(-c3[nH]c4ccccc4c3N=O)c2c1 | 37 µM | 23.2 µM | 30.5 µM | 21.9 µM | 21 µM | 48.8 µM | – | 28.9 µM | 20 µM | 32.8 µM | – | – | – | – | – | –
23 | CCCCc1ccc(Nc2ncc3[nH]cnc3n2)cc1 | 53.2 µM | 36.7 µM | 33.9 µM | > 100 µM | – | 46 µM | 56.5 µM | 35.5 µM | 98.1 µM | 61 µM | – | – | – | – | – | –
